Assay results: patent US20200181117A1, “SUBSTITUTED 3-HETEROARYLOXY-1H-PYRAZOLES AND SALTS THEREOF AND THEIR USE AS HERBICIDAL ACTIVE SUBSTANCES” (BAYER CROPSCIENCE AKTIENGESELLSCHAFT, priority 2017, published 2020)

Legend:
Assay type in all cases: in vivo
[1] = tested on: Hordeum murinum; experiment: Pre-emergence herbicidal action; conditions: 1280 g/ha, scored visually after about 3 weeks vs untreated controls
Procedure, shortened: (§1)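 Pre-emergence soil-surface spray, 1280 g/ha, WP or EC formulation, 0.5% additive, 600 l/ha water. Greenhouse, ~3 wk. Visual score, % vs untreated (0% = like control, 100% = dead).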

[2] = tested on: Polygonum convolvulus; experiment: Pre-emergence herbicidal action; conditions: 1280 g/ha, scored visually after about 3 weeks vs untreated controls
Procedure, shortened: as §1

[3] = tested on: Veronica persica; experiment: Pre-emergence herbicidal action; conditions: 1280 g/ha, scored visually after about 3 weeks vs untreated controls
Procedure, shortened: as §1

[4] = tested on: Stellaria media; experiment: Pre-emergence herbicidal action; conditions: 1280 g/ha, scored visually after about 3 weeks vs untreated controls
Procedure, shortened: as §1

[5] = tested on: Lolium rigidum; experiment: Pre-emergence herbicidal action; conditions: 1280 g/ha, scored visually after about 3 weeks vs untreated controls
Procedure, shortened: as §1

[6] = tested on: Echinochloa crus-galli; experiment: Pre-emergence herbicidal action; conditions: 1280 g/ha, scored visually after about 3 weeks vs untreated controls
Procedure, shortened: as §1

[7] = tested on: Amaranthus retroflexus; experiment: Pre-emergence herbicidal action; conditions: 1280 g/ha, scored visually after about 3 weeks vs untreated controls
Procedure, shortened: as §1

[8] = tested on: Abutilon theophrasti; experiment: Pre-emergence herbicidal action; conditions: 1280 g/ha, scored visually after about 3 weeks vs untreated controls
Procedure, shortened: as §1

[9] = tested on: Alopecurus myosuroides; experiment: Pre-emergence herbicidal action; conditions: 1280 g/ha, scored visually after about 3 weeks vs untreated controls
Procedure, shortened: as §1

[10] = tested on: Avena fatua; experiment: Pre-emergence herbicidal action; conditions: 1280 g/ha, scored visually after about 3 weeks vs untreated controls
Procedure, shortened: as §1

[11] = tested on: Viola tricolor; experiment: Pre-emergence herbicidal action; conditions: 1280 g/ha, scored visually after about 3 weeks vs untreated controls
Procedure, shortened: as §1

[12] = tested on: Setaria viridis; experiment: Pre-emergence herbicidal action; conditions: 1280 g/ha, scored visually after about 3 weeks vs untreated controls
Procedure, shortened: as §1

[13] = tested on: Matricaria inodora; experiment: Pre-emergence herbicidal action; conditions: 1280 g/ha, scored visually after about 3 weeks vs untreated controls
Procedure, shortened: as §1

[14] = tested on: Pharbitis purpurea; experiment: Post-emergence herbicidal action; conditions: 1280 g/ha, rated visually after about 3 weeks vs untreated controls
Procedure, shortened: (§2)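 Greenhouse post-emergence spray at one-leaf stage, 1280 g/ha, 600 l/ha water with 0.5% additive; efficacy rated visually after roughly 3 weeks, 0% meaning like controls and 100% meaning dead plants.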

[15] = tested on: Echinochloa crus-galli; experiment: Post-emergence herbicidal action; conditions: 1280 g/ha, rated visually after about 3 weeks vs untreated controls
Procedure, shortened: as §2

[16] = tested on: Amaranthus retroflexus; experiment: Post-emergence herbicidal action; conditions: 1280 g/ha, rated visually after about 3 weeks vs untreated controls
Procedure, shortened: as §2

[17] = tested on: Ipomoea purpurea; experiment: Post-emergence herbicidal action; conditions: 1280 g/ha, rated visually after about 3 weeks vs untreated controls
Procedure, shortened: as §2

[18] = tested on: Viola tricolor; experiment: Post-emergence herbicidal action; conditions: 1280 g/ha, rated visually after about 3 weeks vs untreated controls
Procedure, shortened: as §2

[19] = tested on: Stellaria media; experiment: Post-emergence herbicidal action; conditions: 1280 g/ha, rated visually after about 3 weeks vs untreated controls
Procedure, shortened: as §2

[20] = tested on: Pharbitis purpurea; experiment: Pre-emergence herbicidal action; conditions: 1280 g/ha, scored visually after about 3 weeks vs untreated controls
Procedure, shortened: as §1

[21] = tested on: Polygonum convolvulus; experiment: Post-emergence herbicidal action; conditions: 1280 g/ha, rated visually after about 3 weeks vs untreated controls
Procedure, shortened: as §2

[22] = tested on: Abutilon theophrasti; experiment: Post-emergence herbicidal action; conditions: 1280 g/ha, rated visually after about 3 weeks vs untreated controls
Procedure, shortened: as §2

[23] = tested on: Lolium rigidum; experiment: Post-emergence herbicidal action; conditions: 1280 g/ha, rated visually after about 3 weeks vs untreated controls
Procedure, shortened: as §2

[24] = tested on: Alopecurus myosuroides; experiment: Post-emergence herbicidal action; conditions: 1280 g/ha, rated visually after about 3 weeks vs untreated controls
Procedure, shortened: as §2

[25] = tested on: Setaria viridis; experiment: Post-emergence herbicidal action; conditions: 1280 g/ha, rated visually after about 3 weeks vs untreated controls
Procedure, shortened: as §2

[26] = tested on: Avena fatua; experiment: Post-emergence herbicidal action; conditions: 1280 g/ha, rated visually after about 3 weeks vs untreated controls
Procedure, shortened: as §2

Structure (SMILES) | herbicidal activity on Hordeum murinum [1] [%] | herbicidal activity on Polygonum convolvulus [2] [%] | herbicidal activity on Veronica persica [3] [%] | herbicidal activity on Stellaria media [4] [%] | herbicidal activity on Lolium rigidum [5] [%] | herbicidal activity on Echinochloa crus-galli [6] [%] | herbicidal activity on Amaranthus retroflexus [7] [%] | herbicidal activity on Abutilon theophrasti [8] [%] | herbicidal activity on Alopecurus myosuroides [9] [%] | herbicidal activity on Avena fatua [10] [%] | herbicidal activity on Viola tricolor [11] [%] | herbicidal activity on Setaria viridis [12] [%] | herbicidal activity on Matricaria inodora [13] [%] | herbicidal activity on Pharbitis purpurea [14] [%] | herbicidal activity on Echinochloa crus-galli [15] [%] | herbicidal activity on Amaranthus retroflexus [16] [%] | herbicidal activity on Ipomoea purpurea [17] [%] | herbicidal activity on Viola tricolor [18] [%] | herbicidal activity on Polygonum convolvulus [21] [%] | herbicidal activity on Abutilon theophrasti [22] [%] | also measured
Cn1cc(Sc2ccc(F)cc2)c(Oc2ncc(Cl)cn2)n1 [Example I-095] | 100 | 90 | 100 | 100 | 100 | 100 | 100 | 100 | 100 | 100 | 100 | 100 | 100 | 80 | 80 | 100 | 80 | 100 | – | – | –
Cc1c(Sc2ccc(F)cc2Cl)c(Oc2ncccn2)nn1C [Example I-135] | 80 | 90 | 100 | 100 | 90 | 100 | 100 | 100 | 100 | 80 | 100 | 100 | 90 | 80 | – | 100 | 80 | 100 | – | – | herbicidal activity on Stellaria media [19]: 90%
CCc1c(Sc2ccc(F)cc2F)c(Oc2ncc(F)cn2)nn1C [Example I-094] | 100 | 90 | 100 | 100 | 80 | 100 | 100 | 100 | 100 | – | 100 | 100 | 100 | 100 | 80 | 100 | – | 100 | 90 | 90 | herbicidal activity on Pharbitis purpurea [20]: 100%; herbicidal activity on Stellaria media [19]: 100%
COc1cnc(Oc2nn(C)c(C)c2Sc2ccc(Cl)cc2)nc1 [Example I-066] | 100 | 90 | 100 | 100 | – | 100 | 100 | 90 | 80 | – | 100 | 100 | 100 | 80 | 80 | 80 | 80 | 100 | – | – | –
COc1cnc(Oc2nn(C)c(C)c2Sc2ccc(F)c(F)c2)nc1 [Example I-157] | 100 | 100 | 100 | 100 | 100 | 100 | 100 | 100 | 100 | 100 | 100 | 100 | 100 | – | 100 | 100 | – | 100 | 80 | 90 | herbicidal activity on Lolium rigidum [23]: 80%; herbicidal activity on Alopecurus myosuroides [24]: 100%; herbicidal activity on Setaria viridis [25]: 80%
Fc1ccc(Sc2c(Oc3ncccn3)nn3c2CCC3)cc1 [Example I-097] | 90 | 100 | 90 | 100 | – | 100 | 90 | 100 | 100 | 80 | 100 | 100 | 100 | 90 | 100 | 80 | – | 80 | – | 90 | herbicidal activity on Pharbitis purpurea [20]: 90%; herbicidal activity on Alopecurus myosuroides [24]: 90%; herbicidal activity on Setaria viridis [25]: 90%
CCc1c(Sc2ccc(F)cc2)c(Oc2ncc(OC)cn2)nn1C [Example I-186] | – | 80 | – | 100 | – | – | 100 | – | – | – | 100 | 100 | 90 | 80 | – | 100 | 80 | 100 | – | – | –
CCc1c(Sc2ccc(F)cc2F)c(Oc2ncc(OC)cn2)nn1C [Example I-207] | – | 80 | 100 | 100 | – | – | 100 | 80 | – | – | 100 | 100 | – | 90 | – | 90 | 90 | 80 | – | – | –
COc1cnc(Oc2nn(C)c(C)c2Sc2ccc(F)cc2)nc1 [Example I-089] | 90 | 90 | 100 | 100 | 90 | 100 | 100 | 100 | 90 | 80 | 100 | 100 | 100 | – | – | – | – | – | 90 | – | herbicidal activity on Alopecurus myosuroides [24]: 90%; herbicidal activity on Avena fatua [26]: 80%; herbicidal activity on Setaria viridis [25]: 80%
